Measured values as given in patent US9273285B1, “Shorter colony-forming cell assay” (STEMCELL TECHNOLOGIES INC., priority 2008, dated 2016).

B1: FLT-3 Ligand (protein, UniProt P49771 27-235, looked up)
Fms-related tyrosine kinase 3 …: TQDCSFQHSPISSDFAVKIRELSDYLLQDYPVTVASNLQDEELCGGLWRLVLAQRWMERLKTVAGSKMQGLLERVNTEIHFVTKCAFQPPPSCLRFVQTNISRLLQETSEQLVALKPWITRQNFSRCLELQCQPDSSTLPPPWSPRPLEATAPTAPQPPLLLLLLLPVGLLLLAAAWCLHWQRTRRRTPRPGEQVPPVPSPQDLLLVEH
notes: cytokine added to the culture medium

Test system: Human CB mononuclear cells
Test: Hematopoietic colony-forming cell (CFC) assay in methylcellulose-based MethoCult media
Set-up: key to Size, Morphology ranking: Ranking on the basis of colony size and morphology: 1 is best; 4 is worst
Conditions: for Colony numbers as percentage of colony numbers in medium without extra cytokines, Average: average of experiments
Protocol: Frozen ficolled cord blood mononuclear cells were thawed, nucleated cells were counted by microscopy using a hemacytometer after dilution in 3% acetic acid to lyse mature erythrocytes. The cells were diluted with Iscove's MDM to 10-fold the desired cell concentration. 0.4 mL of the cell suspensions were added into an aliquot of test MethoCult® medium (4 mL) and mixed by vortexing. 1.1 mL of each cell/medium mixture was dispensed into triplicate 35 mm culture dishes using 3 mL syringes with blunt end needles, with 1.1 mL of medium per dish. All cultures were incubated for 4, 7, 10 or the standard 14 days at 37° C., 5% CO2, 100% humidity. Colonies were enumerated and classified by bright-field microscopy into the following categories based on size and morphology: CFU-E, BFU-E, CFU-GM, CFU-GEMM (StemCell Technologies, Colony Atlas). […]
Methocult® H4435 medium, which contains the 6 cytokines IL-3, IL-6, SCF, GM-CSF, G-CSF and EPO, was supplemented with Zinc Sulphate at final concentrations 2, 10 and 20 μM and 4 different CB samples were cultured for 7 and 14 days as described in Example 1. […] In one experiment, CFU-GM colonies were larger in the presence of zinc, whereas BFU-E colony size was unchanged.
To examine if adding extra cytokines can further increase colony growth, culture medium as in Example 5 was supplemented with FL, TPO or both. Cultures were set up using Cord Blood cells and colonies were counted after 7 and 14 days. […] In three of the four experiments colony size and morphology after 14 days were very similar whether or not TPO and/or FL were present in the medium. In one experiment (Exp 4 in Table 2) colonies were slightly larger in cultures without TPO and FL compared to cultures with TPO and FL. […]

[1] = Exp. 1, 7 days, added to MethoCult medium with IL-3, IL-6, G-CSF, GM-CSF, SCF, EPO, cord blood

Molecule	Colony numbers as percentage of colony numbers in medium without extra cytokines (Exp. 1, 7 days) [%]	Size, Morphology ranking (Exp. 1, 7 days)	Colony numbers per 10^5 cells plated [1] [per 10^5 cells plated]	Colony numbers as percentage of colony numbers in medium without extra cytokines (Exp. 1, 14 days) [%]	Colony numbers per 10^5 cells plated (Exp. 1, 14 days) [per 10^5 cells plated]	Size, Morphology ranking (Exp. 1, 14 days)	Colony numbers as percentage of colony numbers in medium without extra cytokines (Exp. 2, 7 days) [%]	Colony numbers per 10^5 cells plated (Exp. 2, 7 days) [per 10^5 cells plated]	Size, Morphology ranking (Exp. 2, 7 days)	Colony numbers as percentage of colony numbers in medium without extra cytokines (Exp. 2, 14 days) [%]	Colony numbers per 10^5 cells plated (Exp. 2, 14 days) [per 10^5 cells plated]	Size, Morphology ranking (Exp. 2, 14 days)	Colony numbers as percentage of colony numbers in medium without extra cytokines (Exp. 3, 7 days) [%]	Colony numbers per 10^5 cells plated (Exp. 3, 7 days) [per 10^5 cells plated]	Size, Morphology ranking (Exp. 3, 7 days)	Colony numbers as percentage of colony numbers in medium without extra cytokines (Exp. 3, 14 days) [%]	Colony numbers per 10^5 cells plated (Exp. 3, 14 days) [per 10^5 cells plated]	Size, Morphology ranking (Exp. 3, 14 days)	Colony numbers as percentage of colony numbers in medium without extra cytokines, Average (7 days) [%]	Colony numbers as percentage of colony numbers in medium without extra cytokines, Average (14 days) [%]	other results
Thrombopoietin [TPO]	78	2	210	93	287	1	102	393	1	102	480	1	107	317	2	107	360	1	95	101	
O=S(=O)([O-])[O-].[Zn+2] [Zinc Sulphate]																					total colony numbers on day 7 and 14 relative to media containing no Zinc, or 2 μM of Zinc (10 or 20 μM in Methocult H4435, 4 CB samples (FIG. 4)): increased; Effect on colony size after 14 days of culture (in Methocult H4435, 3 of the 4 experiments): no effects of zinc on colony size was observed; Colony size and morphology on day 7 compared to zinc-free medium (in Methocult H4435, particularly at 10 and 20 uM, three of 4 experiments): the colonies were larger, and more evenly spread out
B1	99	2	267	110	337	1	107	413	2	99	463	1	99	293	3	94	317	1	101	101	
